Laboratory results: patent US4397860A, “Benzodioxanyl imidazoline compounds, compositions and use” (Reckitt & Colman Products Limited, priority 1981, dated 1983)
Counter-ions that a name gives are not always drawn. Like-named read-outs stand apart in the source and are kept apart here.

Columns and labels:
[1] = tested on: presynaptic α2-adrenoreceptors; conditions: from G.B. 2,068,376A / U.S. Ser. No. 230,195; cited from earlier work
[2] = target: T1, pre-synaptic α2-adrenoreceptor (Mus musculus, UniProt Q01338); test: Pre-synaptic α2-adrenoreceptor agonist activity, mouse vas deferens (inhibition of twitch responses); design: key: I.A.: inactive; conditions: potency relative to clonidine = 1
T1 construct: from tissue; host or cells: mouse vas deferens
T1 sequence (Q01338 1-465): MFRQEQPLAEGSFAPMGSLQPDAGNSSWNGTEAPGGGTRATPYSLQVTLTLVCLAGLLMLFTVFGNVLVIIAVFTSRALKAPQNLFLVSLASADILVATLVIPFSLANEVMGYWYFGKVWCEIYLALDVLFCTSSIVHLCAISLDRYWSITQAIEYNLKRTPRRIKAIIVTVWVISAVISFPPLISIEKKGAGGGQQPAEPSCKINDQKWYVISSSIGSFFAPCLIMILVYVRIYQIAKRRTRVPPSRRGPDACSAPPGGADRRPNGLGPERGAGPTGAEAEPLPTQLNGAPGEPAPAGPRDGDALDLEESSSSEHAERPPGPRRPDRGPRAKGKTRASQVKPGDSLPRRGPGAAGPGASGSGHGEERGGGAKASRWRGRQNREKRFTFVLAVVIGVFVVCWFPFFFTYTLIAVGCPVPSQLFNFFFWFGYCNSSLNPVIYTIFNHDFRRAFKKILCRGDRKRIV
Method: The pharmacological activity of the compound of Example 1 (in formula I R^1 =methyl) has been compared with the activities of the isomeric compounds in which the methyl group is situated at differing positions in formula A. The procedures involved the measurement of agonist or antagonist activity at pre- and post-synaptic α-adrenoreceptors.
In the procedures outlined below agonist potency of the compounds was determined with respect to standard agents whereas antagonist potency was related to that of the compound of formula A. Pre- and post-synaptic studies were carried out in the mouse vas deferens and rat anococcygeus muscle respectively.
Pre-synaptic studies (α2)
The mouse vas deferens was stimulated at low frequency (0.1 Hz) and the "twitch" responses recorded. Pre-synaptic α2 -adrenoreceptor agonist activity was determined by assessing the ability of compounds to inhibit these contractions. When inhibition was seen the potency of the individual compounds was related to that of the standard α2 -adrenoreceptor agonist clonidine.

[3] = target: T2, postsynaptic α1-adrenoreceptor (Rattus norvegicus, UniProt P43140); test: Post-synaptic α1-adrenoreceptor agonist activity, rat anococcygeus muscle (contractions); design: key: I.A.: inactive; conditions: potency relative to phenylephrine = 1
T2 construct: the rat anococcygeus muscle is used to establish postsynaptic α1 -adrenoreceptor activity; from tissue; host or cells: rat anococcygeus muscle
T2 sequence (P43140 1-466): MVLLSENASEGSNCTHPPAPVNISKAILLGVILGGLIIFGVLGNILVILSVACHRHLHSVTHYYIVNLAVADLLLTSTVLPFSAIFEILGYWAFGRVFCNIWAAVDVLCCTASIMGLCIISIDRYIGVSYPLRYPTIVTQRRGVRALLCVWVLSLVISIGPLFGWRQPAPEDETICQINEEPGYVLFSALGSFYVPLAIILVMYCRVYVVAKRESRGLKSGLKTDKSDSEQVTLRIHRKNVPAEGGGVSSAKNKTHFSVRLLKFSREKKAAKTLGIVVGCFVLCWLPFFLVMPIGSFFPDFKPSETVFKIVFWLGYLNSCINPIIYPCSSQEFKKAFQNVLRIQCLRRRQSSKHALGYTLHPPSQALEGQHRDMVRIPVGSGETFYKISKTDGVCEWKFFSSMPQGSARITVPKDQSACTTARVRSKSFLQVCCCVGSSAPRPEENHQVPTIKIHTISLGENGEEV

[4] = tested on: pre-synaptic α2-adrenoreceptor; test: Pre-synaptic α2-adrenoreceptor antagonist activity, mouse vas deferens (reversal of clonidine inhibition); conditions: for α2/α1 selectivity: selectivity relative to the compound of formula A, mouse vas deferens / rat anococcygeus
Method: In the antagonist studies the same experimental conditions were used except that the twitch response was suppressed by including clonidine (30 ng/ml) in the physiological solution.

[5] = target: T2, postsynaptic α1-adrenoreceptor; test: Post-synaptic α1-adrenoreceptor antagonist activity, rat anococcygeus muscle (noradrenaline-induced contractions)
[6] = target: T2, postsynaptic α1-adrenoreceptor; test: Postsynaptic α1-adrenoreceptor antagonism vs noradrenaline contractions, isolated rat anococcygeus muscle; conditions: mean of minimum 5 experiments, read-out: Postsynaptic antagonism pA2 vs Noradrenaline (anococcygeus) (converted)
[7] = rat anococcygeus muscle vs noradrenaline, dose-ratio of 2, […]

Question: Which “selectivity in blocking presynaptic α2-adrenoreceptors (in words)” value [1] does the source give for c1ccc2c(c1)OCC(C1=NCCN1)O2 (stereo not drawn) [formula A, 2-[2-(1,4-benzodioxanyl)]-2-imidazoline] here?
Answer: high degree of selectivity in blocking presynaptic α2 -adrenoreceptors

Question: Which “α2 potency: Agonism” value [2] does the source give for CN1CCN=C1C1COc2ccccc2O1 (stereo not drawn) [3^1 -methyl] here?
Answer: I.A.

Question: What about the “α1 potency: Agonism” value [3] of the same molecule?
Answer: I.A.

Question: What about the α2/α1 selectivity [4] of the same molecule?
Answer: 0.003

Question: What about the “α1 potency: Antagonism” value [5] of the same molecule?
Answer: 1.0

Question: Which results are given for CC1Oc2ccccc2OC1C1=NCCN1 (stereo not drawn) [Example 3-methyl]?
Answer: α2 potency: Agonism [2]: I.A.; α1 potency: Agonism [3]: I.A.; α1 potency: Antagonism [5, 7]: < 0.023

Question: With Cc1ccc2c(c1)OC(C1=NCCN1)CO2 (stereo not drawn) [Example 7-methyl] as the molecule, how does the “α2 potency: Agonism” value [2] read?
Answer: I.A.

Question: And the “α1 potency: Agonism” value [3]?
Answer: 0.004

Question: And the α2/α1 selectivity [4]?
Answer: 0.64

Question: What about the “α1 potency: Antagonism” value [5, 7] of the same molecule?
Answer: 0.125

Question: What does the source list for CC1(C2=NCCN2)COc2ccccc2O1 (stereo not drawn) [Example 1, 2-[2-(2-Methyl-1,4-benzodioxanyl)]-2-imidazoline hydrochloride]?
Answer: α2 potency: Agonism [2]: I.A.; Kb [6]: 2510 nM; α1 potency: Agonism [3]: I.A.; selectivity relative to the compound of formula A (in words) ([4]; Table 3): rather more than twice as selective as the compound of formula A; α2/α1 selectivity [4]: 2.4; α1 potency: Antagonism [5, 7]: 0.28

Question: For Cc1ccc2c(c1)OCC(C1=NCCN1)O2 (stereo not drawn) [Example 6-methyl], which “α2 potency: Agonism” value [2] is on record?
Answer: I.A.

Question: What about the “α1 potency: Agonism” value [3] of the same molecule?
Answer: I.A.

Question: And the α2/α1 selectivity [4]?
Answer: 0.7

Question: And the “α1 potency: Antagonism” value [5, 7]?
Answer: < 0.11

Question: What does the source list for Cc1cccc2c1OCC(C1=NCCN1)O2 (stereo not drawn) [Example 5-methyl]?
Answer: α2 potency: Agonism [2]: 0.1; α1 potency: Agonism [3]: 1.0; α1 potency: Antagonism (result in words) ([5]; rat anococcygeus muscle vs noradrenaline, 20ng/ml): Potentiation

Question: With Cc1cccc2c1OC(C1=NCCN1)CO2 (stereo not drawn) [Example 8-methyl] as the molecule, how does the “α2 potency: Agonism” value [2] read?
Answer: 0.01

Question: What about the “α1 potency: Agonism” value [3] of the same molecule?
Answer: 2.1
